Measurements from publication PMC11272085, “Steroid Drugs Inhibit Bacterial Respiratory Oxidases and Are Lethal Toward Methicillin-Resistant Staphylococcus aureus” (The Journal of Infectious Diseases, 2024).
≈ marks a conversion by molar mass, not a printed value. Where “and” joins values, the source holds several entries; their conditions need not be identical. Identical values can stand only once. Entries after “also recorded” stand apart in the source; their conditions may differ. Like-named read-outs stand apart in the source and are kept apart here. No end group written: not given here.

Legend:
E. coli cytochrome bd-I [1] = target: T1, E. coli cytochrome bd-I (Escherichia coli, UniProt P0ABJ9); settings: peptides that bind to E. coli cytochrome bd-I ref 33, 34, 35; cited from earlier work
T1 construct: endogenous in cells; host or cells: E. coli EC958 (O25:H4-ST131) bd-I-only mutant (ΔcyoA appCB::Cm), isolated cell membranes
T1 sequence (P0ABJ9 whole entry, looked up): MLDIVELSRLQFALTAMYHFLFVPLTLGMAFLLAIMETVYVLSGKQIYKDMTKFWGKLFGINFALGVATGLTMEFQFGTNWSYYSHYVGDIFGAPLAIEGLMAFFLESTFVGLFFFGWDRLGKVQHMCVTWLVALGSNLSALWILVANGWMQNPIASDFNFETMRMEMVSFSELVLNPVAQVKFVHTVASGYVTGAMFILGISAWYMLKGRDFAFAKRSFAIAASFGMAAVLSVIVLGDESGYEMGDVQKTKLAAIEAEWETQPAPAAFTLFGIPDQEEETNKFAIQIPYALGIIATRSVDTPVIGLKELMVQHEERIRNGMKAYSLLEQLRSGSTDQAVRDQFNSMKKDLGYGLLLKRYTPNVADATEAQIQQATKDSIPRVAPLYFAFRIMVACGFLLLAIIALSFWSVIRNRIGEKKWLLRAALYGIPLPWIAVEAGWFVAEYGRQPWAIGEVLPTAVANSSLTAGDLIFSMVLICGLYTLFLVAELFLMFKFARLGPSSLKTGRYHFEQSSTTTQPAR

E. coli cytochrome bd-I [2] = target: T2, E. coli cytochrome bd-I (Escherichia coli, UniProt P0ABJ9); assay: Oxygen consumption assay (oxygen electrode), E. coli EC958 bd-I-only membranes; settings: for Effect on oxygen consumption (in words) / IC50: E. coli bd-I-only membranes; for Effect on oxygen consumption (in words) / Inhibition of oxygen consumption: 100 µM drug; for Inhibition of oxygen consumption / IC50: 8 mM succinate; for Inhibition of oxygen consumption: 500 µg/mL membranes; for IC50: IC50 oxygen consumption
T2 sequence (P0ABK2 whole entry, one chain of several): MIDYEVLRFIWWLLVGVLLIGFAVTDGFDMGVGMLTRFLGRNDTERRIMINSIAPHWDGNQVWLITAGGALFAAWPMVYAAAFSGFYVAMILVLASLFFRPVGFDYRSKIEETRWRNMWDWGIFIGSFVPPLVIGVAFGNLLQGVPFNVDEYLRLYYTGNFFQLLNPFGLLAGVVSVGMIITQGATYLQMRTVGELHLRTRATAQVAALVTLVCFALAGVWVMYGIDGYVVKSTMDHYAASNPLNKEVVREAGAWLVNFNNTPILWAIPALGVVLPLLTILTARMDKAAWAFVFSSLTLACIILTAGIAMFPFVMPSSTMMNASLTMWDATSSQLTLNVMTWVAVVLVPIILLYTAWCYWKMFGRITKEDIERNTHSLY
T2 sequence (A5A618 whole entry, one chain of several, further chain): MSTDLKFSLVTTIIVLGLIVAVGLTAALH
T2 sequence (P56100 whole entry, one chain of several, further chain): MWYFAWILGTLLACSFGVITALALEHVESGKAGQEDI

E. coli cytochrome bd-I [3] = target: T2, E. coli cytochrome bd-I; set-up: endogenous in cells; host or cells: E. coli EC958 (O25:H4-ST131) bd-I-only mutant (ΔcyoA appCB::Cm), isolated cell membranes; settings: peptides that bind to E. coli cytochrome bd-I ref 33, 34, 35; cited from earlier work
[4] = tested on: Mycobacterium smegmatis bd-only strain; set-up: method as in PMID 31939065; settings: ATP assays, M. smegmatis bd-only strain ref 40; cited from earlier work
MRSA WT cells = assay: microbe, parasite or virus in culture; settings: Staphylococcus aureus, 3 h, read-out: LC50 (median lethal concentration)
Description: (§1) Viability assays were performed essentially as described by Webster et al [22]. In brief, E. coli EC958 was grown overnight in 10 mL LB medium and was used to inoculate M9 medium. MRSA cells were grown in TSB medium throughout. Twenty microliters of each drug was added to the wells of row A of a 96-well plate followed by 180 µL of cells (OD600 of 0.1). Cells were exposed to drug for 3 hours at 37°C. Following drug exposure, serial dilutions were performed in 1× phosphate-buffered saline (pH 7.4) before being spotted onto LB agar plates overnight to determine changes in cell growth. Six repeats were performed for each concentration of drug, which included 2 biological repeats and 3 technical repeats of each.

MRSA USA300 WT = assay: Growth assay, MRSA USA300 WT
Description: (§2) Starter cultures were grown in 10 mL Luria–Bertani (LB) (E. coli) or 10 mL Tryptic Soy Broth (TSB) medium (MRSA) in sterile 50 mL conical flasks at 180 rpm and 37°C, until stationary phase was reached, and were used to inoculate 50 mL of fresh growth medium in 250 mL conical flasks. M9 minimal medium was used for E. coli (16 g/L Na2HPO4.2H2O, 3 g/L KH2PO4, 0.5 g/L NaCl, 1 g/L NH4Cl, 0.24 g/L MgSO4, 0.01 g/L CaCl2, 0.1% casamino acids, and 2% glycerol), and TSB medium was used for MRSA. […] Greiner F-bottom sterile 96-well plates were prepared by adding 100 µL of a 2× concentrated growth medium, 61.7 µL sterile milliQ H2O, 5 µL of the drug, and 33.3 µL of cell culture (final optical density at 600 nm [OD600] of ∼ 0.1). Cells were grown in a FLUOstar Omega plate reader at double orbital pattern setting with readings being taken 300 seconds apart.

E. coli WT cells = assay: Viability assay, E. coli WT; settings: 3 hours exposure
Description: as §1

MRSA bd-only cells = assay: microbe, parasite or virus in culture; settings: Staphylococcus aureus, 3 h, read-out: LC50 (median lethal concentration)
Description: as §1

E. coli bd-I-only strain = assay: Growth assay, E. coli EC958 bd-I-only strain; settings: Escherichia coli, read-out: IC50 growth
Description: (§3) The methicillin-resistant Staphylococcus aureus (MRSA) strain used is the well-characterized USA300 LAC isolate [27], a community-associated MRSA strain isolated from the Los Angeles County Jail. All MRSA mutant strains were generated by phage transduction of the relevant transposon mutant from the Nebraska Transposon Mutant Library [28] into strain USA300 LAC using methods described previously [29], generating clean insertions in the loci of interest and conferring erythromycin resistance. For the purposes of this article, the MRSA qoxA::Tn strain will be referred to as “bd-only” while the cydA::Tn strain will be referred to as “aa3-only.”
(§4) Starter cultures were grown in 10 mL Luria–Bertani (LB) (E. coli) or 10 mL Tryptic Soy Broth (TSB) medium (MRSA) in sterile 50 mL conical flasks at 180 rpm and 37°C, until stationary phase was reached, and were used to inoculate 50 mL of fresh growth medium in 250 mL conical flasks. M9 minimal medium was used for E. coli (16 g/L Na2HPO4.2H2O, 3 g/L KH2PO4, 0.5 g/L NaCl, 1 g/L NH4Cl, 0.24 g/L MgSO4, 0.01 g/L CaCl2, 0.1% casamino acids, and 2% glycerol), and TSB medium was used for MRSA. […] Cells were grown in a FLUOstar Omega plate reader at double orbital pattern setting with readings being taken 300 seconds apart.

E. coli bo′-only strain = assay: Growth assay, E. coli EC958 bo′-only strain; settings: Escherichia coli, read-out: IC50 growth
Description: as §3, §4

gram-negative species = tested on: gram-negative species; set-up: method as in PMID 28190396; settings: previous screen ref 31; cited from earlier work
MRSA cytochrome bd = MRSA cytochrome bd (Staphylococcus aureus, UniProt A0A0H2XF42); assay: Oxygen consumption assay, MRSA bd-only membranes; settings: read-out: IC50 oxygen consumption; MRSA bd-only membranes 1 mg/mL, 500 µM NADH
MRSA cytochrome bd, sequence (A0A0H2XF42 entry or part of it): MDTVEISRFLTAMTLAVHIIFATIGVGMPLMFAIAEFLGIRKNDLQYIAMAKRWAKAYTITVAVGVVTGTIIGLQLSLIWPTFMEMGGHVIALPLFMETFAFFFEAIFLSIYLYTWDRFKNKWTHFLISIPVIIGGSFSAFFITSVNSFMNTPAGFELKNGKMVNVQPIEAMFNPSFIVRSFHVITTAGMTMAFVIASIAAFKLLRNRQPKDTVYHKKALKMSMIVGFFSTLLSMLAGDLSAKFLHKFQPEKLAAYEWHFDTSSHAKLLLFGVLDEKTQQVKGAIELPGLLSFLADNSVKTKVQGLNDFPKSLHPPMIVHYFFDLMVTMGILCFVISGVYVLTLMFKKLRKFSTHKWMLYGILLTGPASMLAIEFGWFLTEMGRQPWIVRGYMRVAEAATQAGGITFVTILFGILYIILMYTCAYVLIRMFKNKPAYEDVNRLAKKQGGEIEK
MRSA cytochrome bd, sequence (A0A0H2XJA4 entry or part of it, further chain): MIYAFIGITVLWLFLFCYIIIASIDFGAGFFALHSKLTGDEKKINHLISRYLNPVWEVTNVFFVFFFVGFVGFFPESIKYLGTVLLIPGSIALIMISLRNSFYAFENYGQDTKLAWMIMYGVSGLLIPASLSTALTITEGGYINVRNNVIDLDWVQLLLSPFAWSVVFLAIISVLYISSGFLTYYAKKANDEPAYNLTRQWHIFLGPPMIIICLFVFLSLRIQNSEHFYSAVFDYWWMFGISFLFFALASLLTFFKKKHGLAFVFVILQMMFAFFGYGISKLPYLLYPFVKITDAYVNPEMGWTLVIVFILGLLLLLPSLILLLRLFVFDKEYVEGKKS

MRSA = tested on: MRSA; set-up: method as in PMID 28190396; settings: previous screen ref 31; cited from earlier work
E. coli bo′-only cells = assay: Viability assay, E. coli bo′-only; settings: data not shown
MRSA bd-only strain = assay: Growth assay, MRSA USA300 bd-only strain; settings: Staphylococcus aureus, read-out: IC50 growth
Description: as §3, §4

MRSA aa3-only cells = assay: microbe, parasite or virus in culture; settings: Staphylococcus aureus, 3 h, read-out: LC50 (median lethal concentration)
Description: as §1

E. coli EC958 WT = assay: Growth assay, E. coli EC958 WT; settings: Escherichia coli, EC958WT, read-out: IC50 growth
Description: as §2

MRSA aa3-only strain = assay: Growth assay, MRSA USA300 aa3-only strain; settings: Staphylococcus aureus, read-out: IC50 growth
Description: as §3, §4

succinate dehydrogenase = target: T3, succinate dehydrogenase (Escherichia coli, UniProt P07014+P0AC41+P0AC44+P69054); assay: Succinate dehydrogenase assay, E. coli bd-I-only membranes; format: biochemical
T3 construct: endogenous in cells; host or cells: E. coli EC958 bd-I-only mutant (ΔcyoA appCB::Cm), isolated cell membranes
T3 sequence (P0AC44 whole entry): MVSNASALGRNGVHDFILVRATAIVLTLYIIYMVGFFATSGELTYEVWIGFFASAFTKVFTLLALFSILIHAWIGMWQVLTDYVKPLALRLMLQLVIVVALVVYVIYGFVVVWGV
T3 sequence (P07014 whole entry): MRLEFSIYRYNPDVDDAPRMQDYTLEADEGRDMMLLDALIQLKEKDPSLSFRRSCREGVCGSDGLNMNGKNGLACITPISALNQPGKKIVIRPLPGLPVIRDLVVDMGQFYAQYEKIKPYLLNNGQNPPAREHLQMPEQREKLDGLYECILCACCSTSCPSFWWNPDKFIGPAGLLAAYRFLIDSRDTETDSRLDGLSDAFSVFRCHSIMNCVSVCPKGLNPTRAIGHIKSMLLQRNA
T3 sequence (P0AC41 whole entry): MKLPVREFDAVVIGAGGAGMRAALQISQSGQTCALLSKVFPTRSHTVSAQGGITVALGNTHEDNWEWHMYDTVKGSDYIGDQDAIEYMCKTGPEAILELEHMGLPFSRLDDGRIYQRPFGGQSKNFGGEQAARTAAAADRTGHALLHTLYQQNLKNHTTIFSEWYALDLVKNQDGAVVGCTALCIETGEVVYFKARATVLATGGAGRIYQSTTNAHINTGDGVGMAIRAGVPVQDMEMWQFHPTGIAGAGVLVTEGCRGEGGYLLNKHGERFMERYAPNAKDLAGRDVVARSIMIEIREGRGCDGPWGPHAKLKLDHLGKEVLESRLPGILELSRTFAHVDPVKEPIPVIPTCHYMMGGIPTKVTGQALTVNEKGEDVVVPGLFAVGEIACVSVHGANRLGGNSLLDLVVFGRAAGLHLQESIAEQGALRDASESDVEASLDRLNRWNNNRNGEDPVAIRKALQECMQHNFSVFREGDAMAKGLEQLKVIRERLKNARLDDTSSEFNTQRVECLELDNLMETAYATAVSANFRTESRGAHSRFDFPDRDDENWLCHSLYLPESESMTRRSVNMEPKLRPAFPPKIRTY
T3 sequence (P69054 whole entry): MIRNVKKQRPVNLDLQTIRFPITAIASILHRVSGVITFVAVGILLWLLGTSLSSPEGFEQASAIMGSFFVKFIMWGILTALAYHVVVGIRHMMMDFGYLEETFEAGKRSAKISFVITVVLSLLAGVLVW
Description: The method used for the succinate dehydrogenase assay is an adaptation of Kolaj-Robin et al. 2011 [6]. A 1 mL mixture was prepared with a final concentration of 400 μM phenazine methosulfate (PMS), 8 mM succinate, 50 mM Tris-HCL (pH 8.5) buffer, 0.02 % n-dodecyl-β-D-maltoside, 2.5% drug, 500 µg/mL of bacteria membranes and 50 μM of dichlorophenolindophenol (added last). The phenazine methosulfate, succinate and membranes were first preincubated for 30 min at 37 °C before being added to the remaining mixture. To start the reaction, 50 μM of dichlorophenolindophenol was added that produced a starting OD600 that ranged from 0.8 to 1. Spectrakinetics were recorded on a Cary 60 spectrophotometer for 15 min.
Supplementary Figure S3. Succinate dehydrogenase (SDH) E. coli membrane assay with quinestrol. The activity of SDH was expressed as a percentage of the DMSO only control. Data represent the means of three repeats and error bars represent the standard deviation.

[5] = tested on: vancomycin-resistant Enterococcus faecium; set-up: method as in PMID 28190396; settings: previous screen ref 31; cited from earlier work
E. coli bd-I-only cells = assay: Viability assay, E. coli bd-I-only; format: cell-based, Escherichia coli; settings: data not shown

## microcin J25 (GGAGHVPEYFVGIGTPISFYG; ends and bridges not checked; UniProt Q9X2V7 38-58, looked up)
E. coli cytochrome bd-I [1]
  IC50 (in words): µM range

## C#C[C@]1(O)CC[C@H]2[C@@H]3CCc4cc(OC)ccc4[C@H]3CC[C@@]21C [Mestranol]
E. coli cytochrome bd-I [2]
  Effect on oxygen consumption (in words): did not diminish oxygen consumption
E. coli cytochrome bd-I [2]; listed as mestranol
  Effect on oxygen consumption (in words): no inhibitory effects

## gramicidin S
E. coli cytochrome bd-I [3]
  IC50 (in words): µM range

## CCn1c(C(=O)O)c(CNCCc2ccc(Cl)cc2)c2ccccc21 [MQL-H2, 3-[[2-(4-chlorophenyl)ethylamino]methyl]-1-ethyl-indole-2-carboxylic]
[4]
  IC50: 34 µM

## C#C[C@]1(O)CC[C@H]2[C@@H]3CCc4cc(O)ccc4[C@H]3CC[C@@]21C [Ethinyl estradiol]
E. coli cytochrome bd-I [2]
  Inhibition of oxygen consumption: 2 fold
  IC50: 159 µM and 158 µM

## cathelicidin LL-37
E. coli cytochrome bd-I [1]
  IC50 (in words): µM range

## C#C[C@]1(O)CC[C@H]2[C@@H]3CCc4cc(OC5CCCC5)ccc4[C@H]3CC[C@@]21C [Quinestrol]
MRSA WT cells
  CC50: 3.4 ± 0.7 mg/L (≈ 9.33 µM)
MRSA USA300 WT; Staphylococcus aureus, read-out: IC50 growth, MRSA WT, TSB medium
  IC50: 9.8 µg/mL and 27 µM
MRSA USA300 WT; read-out: IC50 growth, MRSA WT, TSB medium
  IC50: 26.9 µM
E. coli WT cells
  Bactericidal activity (in words): not lethal
E. coli WT cells; listed as quinestrol
  Bactericidal activity (in words): did not kill; also recorded: completely resistant to killing
MRSA bd-only cells
  CC50: 5.6 ± 0.3 mg/L (≈ 15.4 µM)
E. coli bd-I-only strain
  IC50: 0.06 µg/mL and 200 nM
E. coli bo′-only strain
  IC50: 0.1 µg/mL and 300 nM
gram-negative species
  Growth inhibition (in words): not gram-negative species
MRSA cytochrome bd
  IC50: 2.69 µM
MRSA
  Growth inhibition (in words): inhibit the growth
E. coli bo′-only cells
  Bactericidal activity (in words): no killing effects
MRSA bd-only strain
  IC50: 2.2 µg/mL and 6 µM
MRSA aa3-only cells
  CC50: 24.7 ± 1.6 µM
E. coli EC958 WT
  IC50: 0.1 µg/mL and 300 nM
MRSA aa3-only strain
  IC50: 5.7 µg/mL and 15.6 µM
Succinate dehydrogenase
  Succinate dehydrogenase activity (in words): does not inhibit succinate dehydrogenase activity
E. coli cytochrome bd-I [2]
  Inhibition of oxygen consumption: 4 fold
  IC50: 0.549 µM and 0.5 µM
E. coli cytochrome bd-I [2]; at higher concentrations
  Residual oxygen consumption activity: around 20%
[5]
  Growth inhibition (in words): inhibit the growth
E. coli bd-I-only cells
  Bactericidal activity (in words): no killing effects
